Reference: PubChem BioAssay AID1919002 (Molecular Pharmacology Branch, DTP, NCI, 2023)
Values joined by “and” are separate entries in the source; they are usually repeats but may differ in a detail not shown here. Equal values may be shown once. One block for each molecule: values may come before it.

Test system: 743489-274-T-PDC complex spheroid growth
Test: Anticancer human tumor 743489-274-T-PDC patient-derived renal cell carcinoma cell line growth inhibition [AhR]
Settings: for viability, T/C: stronger effect = lower value
Outline: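 Agents were dosed in half-log steps down from roughly clinical Cmax, or from 10 microM where Cmax was unknown, alone and with AhR antagonists. Read-out: percent test/control growth of tumor spheroids containing HUVEC and MSC stromal cells.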

[1] = curve of first compound, second compound 0.1 µM
[2] = curve of first compound, second compound 0.316 µM
[3] = curve of first compound, second compound 1 µM
[4] = curve of first compound, second compound 3.16 µM
[5] = curve of first compound, second compound 10 µM
[6] = second compound 0.1 µM, first compound 0.00949 µM
[7] = second compound 0.1 µM, first compound 0.03 µM
[8] = second compound 0.1 µM, first compound 0.0949 µM
[9] = second compound 0.1 µM, first compound 0.3 µM
[10] = second compound 0.1 µM, first compound 0.949 µM
[11] = second compound 0.1 µM, first compound 3 µM
[12] = second compound 0.316 µM, first compound 0.00949 µM
[13] = second compound 0.316 µM, first compound 0.03 µM
[14] = second compound 0.316 µM, first compound 0.0949 µM
[15] = second compound 0.316 µM, first compound 0.3 µM
[16] = second compound 0.316 µM, first compound 0.949 µM
[17] = second compound 0.316 µM, first compound 3 µM
[18] = second compound 1 µM, first compound 0.00949 µM
[19] = second compound 1 µM, first compound 0.03 µM
[20] = second compound 1 µM, first compound 0.0949 µM
[21] = second compound 1 µM, first compound 0.3 µM
[22] = second compound 1 µM, first compound 0.949 µM
[23] = second compound 1 µM, first compound 3 µM
[24] = second compound 3.16 µM, first compound 0.00949 µM
[25] = second compound 3.16 µM, first compound 0.03 µM
[26] = second compound 3.16 µM, first compound 0.0949 µM
[27] = second compound 3.16 µM, first compound 0.3 µM
[28] = second compound 3.16 µM, first compound 0.949 µM
[29] = second compound 3.16 µM, first compound 3 µM
[30] = second compound 10 µM, first compound 0.00949 µM
[31] = second compound 10 µM, first compound 0.03 µM
[32] = second compound 10 µM, first compound 0.0949 µM
[33] = second compound 10 µM, first compound 0.3 µM
[34] = second compound 10 µM, first compound 0.949 µM
[35] = second compound 10 µM, first compound 3 µM
[36] = second compound 0.1 µM, first compound 0.0316 µM
[37] = second compound 0.1 µM, first compound 0.1 µM
[38] = second compound 0.316 µM, first compound 0.0316 µM
[39] = second compound 0.316 µM, first compound 0.1 µM
[40] = second compound 1 µM, first compound 0.0316 µM
[41] = second compound 1 µM, first compound 0.1 µM
[42] = second compound 3.16 µM, first compound 0.0316 µM
[43] = second compound 3.16 µM, first compound 0.1 µM
[44] = second compound 10 µM, first compound 0.0316 µM
[45] = second compound 10 µM, first compound 0.1 µM
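Also: spheroids exposed to agents for 7 days before readout.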
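For viability, T/C in this document: 100% = DMSO vehicle control wells.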

IC50 [1]: > 3 µM
IC50 [2]: > 3 µM
IC50 [3]: > 3 µM
IC50 [4]: > 3 µM
IC50 [5]: > 3 µM
Compound: O=C(C=Cn1cnc(-c2cc(C(F)(F)F)cc(C(F)(F)F)c2)n1)NNc1cnccn1 + Cc1ccccc1N=Nc1ccc(NC(=O)c2ccnn2C)c(C)c1
viability, T/C [6]: 106%
viability, T/C [7]: 110%
viability, T/C [8]: 118%
viability, T/C [9]: 140%
viability, T/C [10]: 121%
viability, T/C [11]: 104%
viability, T/C [12]: 105%
viability, T/C [13]: 102%
viability, T/C [14]: 115%
viability, T/C [15]: 133%
viability, T/C [16]: 103%
viability, T/C [17]: 94%
viability, T/C [18]: 97.8%
viability, T/C [19]: 107%
viability, T/C [20]: 128%
viability, T/C [21]: 140%
viability, T/C [22]: 110%
viability, T/C [23]: 97.1%
viability, T/C [24]: 102%
viability, T/C [25]: 97.7%
viability, T/C [26]: 109%
viability, T/C [27]: 127%
viability, T/C [28]: 95.4%
viability, T/C [29]: 82.5%
viability, T/C [30]: 90.8%
viability, T/C [31]: 85.8%
viability, T/C [32]: 99.7%
viability, T/C [33]: 128%
viability, T/C [34]: 101%
viability, T/C [35]: 79.2%

IC50 (curve of compound): > 1 µM
Compound: CC1COCCN1c1cc(-c2ccnn2C)c2ccnc(-c3ccn[nH]3)c2n1 (centres undefined)
viability, T/C (compound 0.00316 µM): 112% and 105% and 104%
viability, T/C (compound 0.01 µM): 106% and 114% and 100%
viability, T/C (compound 0.0316 µM): 101% (2×) and 104%
viability, T/C (compound 0.1 µM): 106% and 102% and 103%
viability, T/C (compound 0.316 µM): 101% and 86.3% and 100%
viability, T/C (compound 1 µM): 85.1% and 68% and 73.8%

IC50 (curve of compound): 6.73 µM and 5.17 µM and 5.09 µM
Compound: Nc1ccccc1NC(=O)c1ccc(CNC(=O)OCc2cccnc2)cc1
viability, T/C (compound 0.0316 µM): 95% and 98.2% (2×)
viability, T/C (compound 0.1 µM): 91.3% and 103% (2×)
viability, T/C (compound 0.316 µM): 82.6% and 96.2% and 85.1%
viability, T/C (compound 1 µM): 75.5% and 87.3% and 72.5%
viability, T/C (compound 3.16 µM): 57.6% and 59% and 59.5%
viability, T/C (compound 10 µM): 45.6% and 37.9% and 39.1%

IC50 [1]: > 10 µM
IC50 [2]: > 10 µM
IC50 [3]: > 10 µM
IC50 [4]: > 10 µM
IC50 [5]: > 10 µM
Compound: CC1(C)CCC(CN2CCN(c3ccc(C(=O)NS(=O)(=O)c4ccc(NCC5CCOCC5)c([N+](=O)[O-])c4)c(Oc4cnc5[nH]ccc5c4)c3)CC2)=C(c2ccc(Cl)cc2)C1 + Cc1ccccc1N=Nc1ccc(NC(=O)c2ccnn2C)c(C)c1
viability, T/C [36]: 91.9%
viability, T/C [37]: 92.9%
viability, T/C (second compound 0.1 µM, first compound 0.316 µM): 93.9%
viability, T/C (second compound 0.1 µM, first compound 1 µM): 94.7%
viability, T/C (second compound 0.1 µM, first compound 3.16 µM): 96.1%
viability, T/C (second compound 0.1 µM, first compound 10 µM): 94.3%
viability, T/C [38]: 95.7%
viability, T/C [39]: 94.9%
viability, T/C (second compound 0.316 µM, first compound 0.316 µM): 97.5%
viability, T/C (second compound 0.316 µM, first compound 1 µM): 81.8%
viability, T/C (second compound 0.316 µM, first compound 3.16 µM): 87.5%
viability, T/C (second compound 0.316 µM, first compound 10 µM): 81.6%
viability, T/C [40]: 89.8%
viability, T/C [41]: 88.4%
viability, T/C (second compound 1 µM, first compound 0.316 µM): 99.6%
viability, T/C (second compound 1 µM, first compound 1 µM): 99.2%
viability, T/C (second compound 1 µM, first compound 3.16 µM): 89.1%
viability, T/C (second compound 1 µM, first compound 10 µM): 78.3%
viability, T/C [42]: 90.1%
viability, T/C [43]: 91%
viability, T/C (second compound 3.16 µM, first compound 0.316 µM): 93.8%
viability, T/C (second compound 3.16 µM, first compound 1 µM): 85.6%
viability, T/C (second compound 3.16 µM, first compound 3.16 µM): 75.5%
viability, T/C (second compound 3.16 µM, first compound 10 µM): 81.8%
viability, T/C [44]: 84.8%
viability, T/C [45]: 85.2%
viability, T/C (second compound 10 µM, first compound 0.316 µM): 90.1%
viability, T/C (second compound 10 µM, first compound 1 µM): 80%
viability, T/C (second compound 10 µM, first compound 3.16 µM): 104%
viability, T/C (second compound 10 µM, first compound 10 µM): 82.1%

IC50 [1]: > 3 µM
IC50 [2]: > 3 µM
IC50 [3]: > 3 µM
IC50 [4]: > 3 µM
IC50 [5]: > 3 µM
Compound: CCN(c1cc(-c2ccc(CN3CCOCC3)cc2)cc(C(=O)NCc2c(C)cc(C)[nH]c2=O)c1C)C1CCOCC1 + Cc1cncc(-c2nc(NCCc3c[nH]c4ccccc34)c3ncn(C(C)C)c3n2)c1
viability, T/C [6]: 102%
viability, T/C [7]: 102%
viability, T/C [8]: 99.9%
viability, T/C [9]: 91.3%
viability, T/C [10]: 92.7%
viability, T/C [11]: 94.4%
viability, T/C [12]: 94.8%
viability, T/C [13]: 104%
viability, T/C [14]: 93.1%
viability, T/C [15]: 88.1%
viability, T/C [16]: 85.9%
viability, T/C [17]: 94%
viability, T/C [18]: 99.8%
viability, T/C [19]: 97.6%
viability, T/C [20]: 95.3%
viability, T/C [21]: 93%
viability, T/C [22]: 104%
viability, T/C [23]: 101%
viability, T/C [24]: 105%
viability, T/C [25]: 114%
viability, T/C [26]: 102%
viability, T/C [27]: 104%
viability, T/C [28]: 102%
viability, T/C [29]: 103%
viability, T/C [30]: 122%
viability, T/C [31]: 119%
viability, T/C [32]: 122%
viability, T/C [33]: 128%
viability, T/C [34]: 127%
viability, T/C [35]: 122%

IC50 [1]: > 0.1 µM
IC50 [2]: > 0.1 µM
IC50 [3]: > 0.1 µM
IC50 [4]: > 0.1 µM
IC50 [5]: > 0.1 µM
Compound: CC[C@@]1(O)C(=O)OCc2c1cc1n(c2=O)Cc2cc3c(CN(C)C)c(O)ccc3nc2-1 + Cc1ccccc1N=Nc1ccc(NC(=O)c2ccnn2C)c(C)c1
viability, T/C (second compound 0.1 µM, first compound 0.000316 µM): 98.8%
viability, T/C (second compound 0.1 µM, first compound 0.001 µM): 98.7%
viability, T/C (second compound 0.1 µM, first compound 0.00316 µM): 111%
viability, T/C (second compound 0.1 µM, first compound 0.01 µM): 95.8%
viability, T/C [36]: 89.3%
viability, T/C [37]: 80.9%
viability, T/C (second compound 0.316 µM, first compound 0.000316 µM): 98.2%
viability, T/C (second compound 0.316 µM, first compound 0.001 µM): 105%
viability, T/C (second compound 0.316 µM, first compound 0.00316 µM): 106%
viability, T/C (second compound 0.316 µM, first compound 0.01 µM): 96.6%
viability, T/C [38]: 89.3%
viability, T/C [39]: 85.9%
viability, T/C (second compound 1 µM, first compound 0.000316 µM): 89.1%
viability, T/C (second compound 1 µM, first compound 0.001 µM): 94%
viability, T/C (second compound 1 µM, first compound 0.00316 µM): 92.6%
viability, T/C (second compound 1 µM, first compound 0.01 µM): 81.1%
viability, T/C [40]: 87%
viability, T/C [41]: 77.4%
viability, T/C (second compound 3.16 µM, first compound 0.000316 µM): 87.4%
viability, T/C (second compound 3.16 µM, first compound 0.001 µM): 81.2%
viability, T/C (second compound 3.16 µM, first compound 0.00316 µM): 93.3%
viability, T/C (second compound 3.16 µM, first compound 0.01 µM): 90.4%
viability, T/C [42]: 90.4%
viability, T/C [43]: 79.9%
viability, T/C (second compound 10 µM, first compound 0.000316 µM): 88.9%
viability, T/C (second compound 10 µM, first compound 0.001 µM): 80.7%
viability, T/C (second compound 10 µM, first compound 0.00316 µM): 87.4%
viability, T/C (second compound 10 µM, first compound 0.01 µM): 86.2%
viability, T/C [44]: 80.7%
viability, T/C [45]: 63.5%
